{"source": "patent EP4660196A1", "about": "“CRYSTAL FORM OF COMPOUND, PREPARATION METHOD THEREFOR AND USE THEREOF” (Felicamed Biotechnology Co., Ltd., priority 2023, dated 2024)", "key": {"[1]": {"format": "physicochemical", "conditions": "37°C; for S: solubility: calculated as free form; for pH: pH of filtrate"}, "[2]": {"format": "physicochemical", "conditions": "24 h; for S: solubility / pH: room temperature; for S: solubility: calculated as free form; for FC: crystal transfer: XRPD of solid; for pH: pH of filtrate"}, "[3]": {"conditions": "DVS", "procedure": "DVS isotherms were collected on an SMS (Surface Measurement Systems) DVS Intrinsic. Relative humidity at 25°C was calibrated using the deliquescence points of LiCl, Mg(NO3)2, and KCl. Table 9 DVS testing parameters"}, "[4]": {"conditions": "for Carr index: (tapped density - bulk density) / tapped density; for Average angle of repose (°) / Average bulk density / Average tapped density: mean of three tests", "procedure": "A method for testing the density and the tapped density included: (1) a certain mass of to-be-assessed sample was placed into a 5 mL measuring cylinder, and the volume at this moment was recorded. The bulk density was calculated by dividing the mass of the sample by the volume at this moment. (2) The measuring cylinder was slightly tapped 200 times, the final volume was recorded, and the tapped density was calculated by dividing the mass of the sample by the final volume. (3) Three parallel tests were conducted. A method for testing the angle of repose included: (1) a funnel was fixed vertically to a bottom surface, and the material was slowly placed into the funnel. (2) A well-proportioned cone of the material was formed on the bottom surface. The height and bottom surface diameter of the cone were measured. (3) Three parallel tests were conducted.\nAngle of repose α = […], where h is the cone height, and D is the cone diameter."}, "[5]": {"assay": "Mechanical stability (grinding, tableting at 350 MPa, XRPD)", "format": "physicochemical"}, "[6]": {"assay": "Pharmacokinetics of hydrochloride crystal form A in Beagle dogs (intragastric)", "format": "in vivo", "conditions": "dog", "procedure": "Three 31-month-old male Beagle dogs used in this experiment were purchased from Beijing Marshall Bioresources Co., Ltd., with the animal qualification certificate No. 110318201100056783.\nIn this experiment, three male Beagle dogs were randomly selected for administration. All the animals were fasted for at least 12 h before administration and were fed again 4 h after administration. […] Table 28 Administration methods for animals\nThe blood samples from the animals were collected through the jugular vein, with a blood sample volume of 0.5 mL/time. All collected whole blood samples were placed in centrifuge tubes containing EDTA-K2, and the centrifuge tubes were turned upside down to allow the anticoagulant and blood to be fully mixed. All the blood samples were placed on wet ice before centrifugation and centrifuged at 1500 g for 10 min to separate plasma. The plasma samples were transferred to sample tubes and stored at -40°C to […] until analysis.\nThe drug concentration in the plasma of each Beagle dog was detected by an LC-MS/MS method. […]"}, "[7]": {"assay": "Solid-state stability (XRPD, UPLC purity)", "conditions": "for Crystal form Transform: XRPD; for Purity (area%): starting purity 99.82 (hydrochloride), 99.72 (free); for Area (%): UPLC main peak (#Peak 1, RRT 1.00)"}, "[8]": {"conditions": "listed as hydrochloride crystal form A"}, "[9]": {"conditions": "single values of three parallel tests"}}, "note": "Where “and” joins values, the source holds several entries; their conditions need not be identical. Equal entries are not always repeated. Structures can show the parent of a compound that is named as a salt. Where two headings read alike, the source gives them in different places.", "data": [{"smiles": "CC[S@@](=N)(=O)C[C@H]1CC[C@H](N(C)c2ncnc3[nH]ccc23)CC1", "note": "[Hydrochloride crystal form A]", "values": [{"measurement": "S: solubility", "setting": "[1]; FaSSIF, 1 h, 60 min", "value": ">9500", "unit": "µg/mL"}, {"measurement": "S: solubility", "setting": "[1]; FaSSIF, 2 h, 120 min", "value": ">9700", "unit": "µg/mL"}, {"measurement": "S: solubility", "setting": "[1]; FaSSIF, 4 h, 240 min", "value": ">9800", "unit": "µg/mL"}, {"measurement": "S: solubility", "setting": "[1]; FaSSIF, 24 h, 1440 min", "value": ">9600", "unit": "µg/mL"}, {"measurement": "S: solubility", "setting": "[1]; FeSSIF, 1 h, 60 min", "value": ">10400", "unit": "µg/mL"}, {"measurement": "S: solubility", "setting": "[1]; FeSSIF, 2 h, 120 min", "value": ">10200", "unit": "µg/mL"}, {"measurement": "S: solubility", "setting": "[1]; FeSSIF, 4 h, 240 min", "value": ">10200", "unit": "µg/mL"}, {"measurement": "S: solubility", "setting": "[1]; FeSSIF, 24 h, 1440 min", "value": ">10000", "unit": "µg/mL"}, {"measurement": "S: solubility", "setting": "[1]; H2O, 1 h, 60 min", "value": ">9300", "unit": "µg/mL"}, {"measurement": "S: solubility", "setting": "[1]; H2O, 4 h, 240 min", "value": ">9500", "unit": "µg/mL"}, {"measurement": "S: solubility", "setting": "[1]; SGF, 1 h, 60 min", "value": ">9800", "unit": "µg/mL"}, {"measurement": "S: solubility", "setting": "[1]; SGF, 2 h, 120 min", "value": ">9900", "unit": "µg/mL"}, {"measurement": "S: solubility", "setting": "[1]; SGF, 4 h, 240 min", "value": ">9800", "unit": "µg/mL"}, {"measurement": "S: solubility", "setting": "[1]; SGF, 24 h, 1440 min", "value": ">10300", "unit": "µg/mL"}, {"measurement": "pH", "setting": "[1]; FaSSIF, 1 h", "value": 5.0}, {"measurement": "pH", "setting": "[1]; FaSSIF, 2 h", "value": 5.1}, {"measurement": "pH", "setting": "[1]; FaSSIF, 4 h", "value": 5.1}, {"measurement": "pH", "setting": "[1]; FaSSIF, 24 h", "value": 5.0}, {"measurement": "pH", "setting": "[1]; FeSSIF, 1 h", "value": 4.9}, {"measurement": "pH", "setting": "[1]; FeSSIF, 2 h", "value": 4.9}, {"measurement": "pH", "setting": "[1]; FeSSIF, 4 h", "value": 4.9}, {"measurement": "pH", "setting": "[1]; FeSSIF, 24 h", "value": 4.8}, {"measurement": "pH", "setting": "[1]; H2O, 1 h", "value": 4.0}, {"measurement": "pH", "setting": "[1]; H2O, 2 h", "value": 4.0}, {"measurement": "pH", "setting": "[1]; H2O, 4 h", "value": 4.0}, {"measurement": "pH", "setting": "[1]; H2O, 24 h", "value": 4.0}, {"measurement": "pH", "setting": "[1]; SGF, 1 h", "value": 2.9}, {"measurement": "pH", "setting": "[1]; SGF, 2 h", "value": 3.0}, {"measurement": "pH", "setting": "[1]; SGF, 4 h", "value": 3.0}, {"measurement": "pH", "setting": "[1]; SGF, 24 h", "value": 2.9}, {"measurement": "S: solubility", "setting": "[2]; Buffer (pH=2.0)", "value": ">9500", "unit": "µg/mL"}, {"measurement": "S: solubility", "setting": "[2]; Buffer (pH=7.4)", "value": 2500, "unit": "µg/mL"}, {"measurement": "FC: crystal transfer", "setting": "[2]; Buffer (pH=7.4)", "value": "Yes"}, {"measurement": "FC: crystal transfer", "setting": "[2]; Buffer (pH=7.4), listed as hydrochloride crystal form A", "value": "transformed into the free crystal form A"}, {"measurement": "pH", "setting": "[2]; Buffer (pH=2.0)", "value": 3.5}, {"measurement": "pH", "setting": "[2]; Buffer (pH=4.5)", "value": 4.4}, {"measurement": "pH", "setting": "[2]; Buffer (pH=7.4)", "value": 6.2}, {"measurement": "Hygroscopic weight gain (wt%) at 25°C/80% RH", "setting": "[3]", "value": 0.47, "unit": "wt%"}, {"measurement": "Hygroscopic weight gain (wt%) at 25°C/80% RH", "setting": "[3]; [8]", "value": 0.47, "unit": "wt%"}, {"measurement": "Carr index", "setting": "[4]", "value": 41, "unit": "%"}, {"measurement": "Carr index", "setting": "[4]; [8]", "value": 41, "unit": "%"}, {"measurement": "Average angle of repose (°)", "setting": "[4]", "value": 33.9, "unit": "°"}, {"measurement": "Average bulk density", "setting": "[4]", "value": 0.14, "unit": "g/mL"}, {"measurement": "Average tapped density", "setting": "[4]", "value": 0.24, "unit": "g/mL"}, {"measurement": "Average angle of repose (°)", "setting": "[4]; [8]", "value": 33.9, "unit": "°"}, {"measurement": "Average bulk density", "setting": "[4]; [8]", "value": 0.14, "unit": "g/mL"}, {"measurement": "Average tapped density", "setting": "[4]; [8]", "value": 0.24, "unit": "g/mL"}, {"measurement": "Angle of repose (°)", "setting": "[4]; [9]", "value": "33.7 ° and 37.2 ° and 30.8 °"}, {"measurement": "Bulk density", "setting": "[4]; [9]", "value": "0.14 g/mL and 0.13 g/mL"}, {"measurement": "Tapped density", "setting": "[4]; tapped 200 times, single values of three parallel tests", "value": "0.23 g/mL and 0.25 g/mL"}, {"measurement": "Results of mechanical stability After grinding", "setting": "[5]; manual grinding", "value": "The crystal form remains unchanged"}, {"measurement": "Results of mechanical stability After tableting", "setting": "[5]; tablet press, 350 MPa", "value": "The crystal form remains unchanged, but the crystallinity is slightly reduced"}, {"measurement": "clinical observation", "setting": "[6]; in vivo", "value": "no obvious abnormalities were found"}, {"measurement": "k el", "setting": "[6]; plasma, po, 6 mg/kg", "value": "5.39e-05", "unit": "s⁻¹"}, {"measurement": "Crystal form Transform", "setting": "[7]; 25°C/60% RH/4 weeks, open", "value": "No"}, {"measurement": "Purity (area%)", "setting": "[7]; 25°C/60% RH/4 weeks, open", "value": 99.88, "unit": "area%"}, {"measurement": "Crystal form Transform", "setting": "[7]; 40°C/75% RH/4 weeks, open", "value": "No"}, {"measurement": "Purity (area%)", "setting": "[7]; 40°C/75% RH/4 weeks, open", "value": 99.88, "unit": "area%"}, {"measurement": "Crystal form Transform", "setting": "[7]; 80°C/1 d, closed", "value": "No"}, {"measurement": "Area (%)", "setting": "[7]; 25°C/60% RH/4 weeks", "value": 99.88, "unit": "%"}, {"measurement": "Area (%)", "setting": "[7]; 40°C/75% RH/4 weeks", "value": 99.88, "unit": "%"}, {"measurement": "Area (%)", "setting": "[7]; 80°C/1 d", "value": 99.87, "unit": "%"}]}]}
